Experiment [1] concerns the target T1, DNA topoisomerase 1 (Homo sapiens) (UniProt P11387).
T1 sequence (whole entry): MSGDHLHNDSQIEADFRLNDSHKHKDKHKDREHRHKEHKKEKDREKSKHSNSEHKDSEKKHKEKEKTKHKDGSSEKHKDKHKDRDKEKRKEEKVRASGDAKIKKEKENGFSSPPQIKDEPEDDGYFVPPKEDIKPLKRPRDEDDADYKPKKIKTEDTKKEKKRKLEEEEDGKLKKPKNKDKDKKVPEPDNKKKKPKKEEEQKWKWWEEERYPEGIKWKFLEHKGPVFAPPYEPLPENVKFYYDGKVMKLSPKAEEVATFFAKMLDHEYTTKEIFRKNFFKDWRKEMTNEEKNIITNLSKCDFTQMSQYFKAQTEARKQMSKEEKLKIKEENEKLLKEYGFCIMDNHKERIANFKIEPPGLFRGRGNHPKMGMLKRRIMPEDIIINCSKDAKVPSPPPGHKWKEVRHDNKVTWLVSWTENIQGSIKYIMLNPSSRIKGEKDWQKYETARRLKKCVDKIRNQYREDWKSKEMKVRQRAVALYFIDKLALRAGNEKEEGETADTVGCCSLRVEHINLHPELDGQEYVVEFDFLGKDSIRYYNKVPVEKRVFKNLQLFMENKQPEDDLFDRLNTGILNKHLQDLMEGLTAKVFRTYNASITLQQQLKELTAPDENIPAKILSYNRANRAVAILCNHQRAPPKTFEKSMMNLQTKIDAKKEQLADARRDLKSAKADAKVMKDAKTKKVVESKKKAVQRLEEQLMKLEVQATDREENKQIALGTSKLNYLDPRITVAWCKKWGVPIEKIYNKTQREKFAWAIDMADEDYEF
As to the kind of experiment: Inhibition of recombinant human Top1 expressed in Saccharomyces cerevisiae null strain RS190 assessed as decrease in relaxation of supercoiled plasmid DNA at 100 uM using supercoiled plasmid DNA as substrate incubated for 15 sec by red staining based DNA relaxation assay relative to camptothecin.

Experiment [2] concerns the target T1, DNA topoisomerase 1 (Homo sapiens). The experiment in a line: Inhibition of recombinant human Top1 expressed in Saccharomyces cerevisiae null strain RS190 assessed as decrease in relaxation of supercoiled plasmid DNA at 100 uM using supercoiled plasmid DNA as substrate incubated for 1 min by red staining based DNA relaxation assay relative to camptothecin.
For experiment [3] the target is unchanged. As to the kind of experiment: Inhibition of recombinant human Top1 expressed in Saccharomyces cerevisiae null strain RS190 assessed as decrease in relaxation of supercoiled plasmid DNA at 100 uM using supercoiled plasmid DNA as substrate incubated for 3 min by red staining based DNA relaxation assay relative to camptothecin.
Experiment [4] relates to A549. As to the kind of experiment: Antiproliferative activity against human A549 cells incubated for 48 hrs by CCK8 assay. Format: functional, cell-based. Conditions: A549, 48 h.
For experiment [5], the system named is SK-OV-3. As to the kind of experiment: Antiproliferative activity against human SKOV3 cells incubated for 48 hrs by CCK8 assay. Format: functional, cell-based. Conditions: SK-OV-3, 48 h.
Experiment [6] deals with MRC5. As to the kind of experiment: Cytotoxicity against human MRC5 cells incubated for 48 hrs by CCK8 assay. Format: cell-based. Conditions: MRC5, 48 h.

On to `c1ccc([C@@H]2c3ncccc3N[C@@H]3c4ccccc4OC[C@@H]23)cc1` (relative stereo), for which the inhibition in experiment [1] came to 5%; in experiment [2], 4%; in experiment [3], 1%. For the same compound, the values for the half-inhibitory concentration (IC50) in experiment [4], in experiment [5] and in experiment [6] were 1.03 µM, 1.75 µM and > 50 µM, respectively.
Take `Fc1ccc2c(c1)[C@H]1Nc3cccnc3[C@@H](c3ccccc3)[C@@H]1CO2` (relative stereo): the inhibition in experiment [1] was 2%; in experiment [2] it was 1%; in experiment [3], 1%. In addition, the IC50 is 11.3 µM in experiment [4], > 50 µM in experiment [5] and > 50 µM in experiment [6].
For the compound `COc1ccc2nc3c(c(-c4ccccc4)c2n1)c(=O)oc1ccccc13`, the inhibition was found to be 72% in experiment [1], 12% in experiment [2] and 12% in experiment [3]. The IC50 in experiment [4], in experiment [5] and in experiment [6] was > 50 µM in each case.
Consider `O=C1Oc2ccccc2[C@H]2Nc3ccc(Br)nc3[C@@H](c3ccccc3)[C@H]12` (relative stereo), for which the inhibition in experiment [1], in experiment [2] and in experiment [3] was 4% each time. In addition, the IC50 in experiment [4], in experiment [5] and in experiment [6] was > 50 µM throughout.
On to `COc1ccc(-c2c3c(nc4cccnc24)-c2ccccc2OC3)cc1`, for which the inhibition worked out at 29% in experiment [1], 30% in experiment [2] and 29% in experiment [3]. Also, the IC50 is 17.9 µM in experiment [4], > 50 µM in experiment [5] and > 50 µM in experiment [6].
Turning to `COc1ccc2c(n1)[C@@H](c1ccccc1)[C@@H]1COc3ccccc3[C@H]1N2` (relative stereo), the inhibition in experiment [1] was found to be 81%; in experiment [2], 26%; in experiment [3], 12%. The IC50 was 5.43 µM in experiment [4], > 50 µM in experiment [5] and > 50 µM in experiment [6].
Turning to `O=c1oc2ccccc2c2nc3cccnc3c(-c3ccccc3)c12`, the results for the inhibition in experiment [1], in experiment [2] and in experiment [3] were 25%, 2% and 2%, respectively. Besides, the IC50 in experiment [4] is 9.03 µM; in experiment [5], > 50 µM; in experiment [6], > 50 µM.
Take `c1ccc(-c2c3c(nc4cccnc24)-c2ccccc2OC3)cc1`: the inhibition in experiment [1] stood at 30%; in experiment [2] it was 14%; in experiment [3], 2%. Also, the IC50 in experiment [4], in experiment [5] and in experiment [6] was > 50 µM each time.
Turning to `COc1ccc2nc3c(c(-c4ccccc4)c2n1)COc1ccccc1-3`, the inhibition in experiment [1] came out at 86%; in experiment [2], 16%; in experiment [3], 15%. For the same compound, the IC50 in experiment [4] is 11.7 µM; in experiment [5], > 50 µM; in experiment [6] it was > 50 µM.
For the compound `Cc1ccc2c(c1)-c1nc3cccnc3c(-c3ccccc3)c1CO2`, the inhibition in experiment [1], in experiment [2] and in experiment [3] was 2% throughout. Further, the IC50 in experiment [4], in experiment [5] and in experiment [6] was > 50 µM throughout.
Consider `O=C1Oc2ccccc2[C@H]2Nc3cccnc3[C@@H](c3ccccc3)[C@H]12` (relative stereo), for which the inhibition stood at 5% in experiment [1], 7% in experiment [2] and 5% in experiment [3]. Further, the IC50 in experiment [4] was 25.4 µM; in experiment [5], > 50 µM; in experiment [6] it was > 50 µM.
Consider `Cc1ccc2c(c1)[C@H]1Nc3cccnc3[C@@H](c3ccccc3)[C@@H]1CO2` (relative stereo), for which the figures for the inhibition in experiment [1], in experiment [2] and in experiment [3] were 70%, 69% and 19%, respectively. Further, the results for the IC50 in experiment [4], in experiment [5] and in experiment [6] were 7.25 µM, 12.7 µM and > 50 µM, respectively.
`Fc1ccc(-c2c3c(nc4cccnc24)-c2ccccc2OC3)cc1F`: the inhibition in experiment [1] stood at 84%; in experiment [2], 6%; in experiment [3], 6%. Moreover, the IC50 in experiment [4], in experiment [5] and in experiment [6] was > 50 µM in each case.
In the case of `Fc1ccc2c(c1)-c1nc3cccnc3c(-c3ccccc3)c1CO2`, the inhibition in experiment [1], in experiment [2] and in experiment [3] was 2% throughout. The IC50 in experiment [4], in experiment [5] and in experiment [6] was > 50 µM in each case.
`Brc1ccc2nc3c(c(-c4ccccc4)c2n1)COc1ccccc1-3`: the inhibition in experiment [1], in experiment [2] and in experiment [3] was 4% in each case. Moreover, the concentration for half-maximal inhibition (IC50) in experiment [4], in experiment [5] and in experiment [6] was > 50 µM in each case.
On to `O=c1oc2ccc(F)cc2c2nc3cccnc3c(-c3ccccc3)c12`, for which the inhibition came out at 26% in experiment [1], 2% in experiment [2] and 2% in experiment [3]. The IC50 in experiment [4], in experiment [5] and in experiment [6] was > 50 µM each time.
Turning to `COc1ccc2c(n1)[C@@H](c1ccccc1)[C@@H]1C(=O)Oc3ccccc3[C@H]1N2` (relative stereo), the inhibition in experiment [1], in experiment [2] and in experiment [3] was 4% each time. Further, the IC50 in experiment [4], in experiment [5] and in experiment [6] was > 50 µM each time.
Turning to `O=C1Oc2ccc(F)cc2[C@H]2Nc3cccnc3[C@@H](c3ccccc3)[C@H]12` (relative stereo), the inhibition in experiment [1] was 30%; in experiment [2], 25%; in experiment [3] it was 2%. The IC50 in experiment [4], in experiment [5] and in experiment [6] was > 50 µM in each case.
For the compound `O=c1oc2ccccc2c2nc3ccc(Br)nc3c(-c3ccccc3)c12`, the inhibition in experiment [1], in experiment [2] and in experiment [3] was 4% each time. In addition, the IC50 in experiment [4] was 29 µM; in experiment [5], > 50 µM; in experiment [6], > 50 µM.

The record behind these values is ChEMBL document CHEMBL4359829, “Straightforward synthesis and biological evaluation as topoisomerase I inhibitors and antiproliferative agents of hybrid Chromeno[4,3-b][1,5]Naphthyridines and Chromeno[4,3-b][1,5]Naphthyridin-6-ones” (Eur J Med Chem, 2019).
